Assay results taken from US7323541B2, “Polypeptide DNA thereof and use of the same” (Takeda Pharmaceutical Company Limited, priority 2001, dated 2008).
Substitutions are numbered along the chain they refer to. Where no end group is shown, it is not given here.

Legend:
[1] = biological target: T1, TGR23-2 expressing CHO cells (Homo sapiens, UniProt Q6W5P4, N107I/Q344R); assay: Enhancing activity of intracellular cAMP production; assay type: cell-based
T1 construct: the clones having the cDNA of TGR23-2, which is contained in pTB2174, were selected; expressed in transfected cells; host or cells: hamster CHO/dhfr- cells, vector pAKKO-111H (pAKKO-TGR23-2)
T1 sequence (Q6W5P4 1-371 N107I/Q344R): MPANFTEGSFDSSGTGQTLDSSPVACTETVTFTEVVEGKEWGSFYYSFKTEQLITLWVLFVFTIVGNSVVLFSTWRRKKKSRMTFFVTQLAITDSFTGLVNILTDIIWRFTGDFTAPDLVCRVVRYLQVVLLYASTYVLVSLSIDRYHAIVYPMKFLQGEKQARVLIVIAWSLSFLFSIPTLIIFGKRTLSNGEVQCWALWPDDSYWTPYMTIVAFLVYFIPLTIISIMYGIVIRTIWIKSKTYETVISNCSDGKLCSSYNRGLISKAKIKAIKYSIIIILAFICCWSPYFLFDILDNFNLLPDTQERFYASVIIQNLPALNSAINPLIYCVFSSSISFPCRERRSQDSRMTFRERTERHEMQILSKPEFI
Description: (§1) The CHO/TGR23-2 cells prepared in Example 1 and selected in Example 2 were plated on 24-well plate at 7×10^4 cells/well and cultured for 48 hours. The cells were washed with αMEM medium (pH7.5) containing 0.2 mM 3-isobutyl-methylxanthine, 0.05% BSA and 20 mM HEPES (hereafter, αMEM medium (pH7.5) containing 0.2 mM 3-isobutyl-methylxanthine, 0.05% BSA and 20 mM HEPES may be referred to as a reaction buffer). Subsequently, 0.5 ml of the reaction buffer was added, and the solution was incubated for 30 minutes in the incubator. The reaction buffer was removed and 0.25 ml of the reaction buffer was freshly added to the cells. Then, the cells were admixed with a sample and 0.25 ml of the reaction buffer containing 2 μM forskoline, and incubated at 37° C. for 30 minutes. Intracellular cAMP was extracted by removing the reaction solution and adding 0.5 ml of the solution for cell lysis attached with cAMP EIA Kit (Applied Biosystems). The cAMP level in the extract was quantified with the same kit. Based on this measured value, a calculation was made using the following formula, and the enhancing/inhibiting activity for cAMP production was represented by % of control. The activity of the sample-adding group was calculated using a control value configured in each plate. % of control=(X−C)/(T−C)×100
(§2) X: The cAMP level in the sample-adding group
(§3) T: The means of the cAMP level in 3 wells of positive control (no sample, with stimulus of forskoline)
(§4) C: The means of the cAMP level in 3 wells of negative control (no sample, without stimulus of forskoline)
In addition, for the same sample, in accordance with the method shown in Example 4, an arachidonic acid metabolite releasing activity was assayed.
Four microlitters each of the above-mentioned HPLC active fractions of rat whole brain extracts (Fraction numbers 18, 20 and 22 to 23) was added to 100 μl of 0.2 M ammonium acetate and incubated at 37° C. for 2 hours with 3 μg of Pronase. Subsequently, Pronase added, was inactivated by heating in boiling water for 10 minutes. To this solution, one ml of distilled water containing 0.05 mg of BSA and 0.05 mg of CHAPS was added. Further, it was lyophilized. For the lyophilized sample, enhancing activity for intracellular cAMP production was assayed by adding to TGR23-2 expressing CHO cells according to the method shown in Example 3.
(§5) Human TGR23-2 ligand (1-20) prepared by the method described in Example 17 was administered to TGR23-1 expressing CHO cells and TGR23-2 expressing CHO cells at a variety of concentrations according to the method described in Example 3, and the enhancing activity of intracellular cAMP production was determined.
Further, human TGR23-2 ligand (1-20) and rat TGR23-2 ligand (1-18) prepared by the method described in Example 19 were administered to TGR23-1 expressing CHO cells and TGR23-2 expressing CHO cells at a variety of concentrations, and the same assay as described above was carried out under the condition of no forskolin. A calculation was made using the following formula, and the enhancing activity for cAMP production was represented by % of control: % of control=X/C×100;
X: The cAMP level in the sample-adding group; and
C: Control (no sample, without stimulus of forskoline).

[2] = biological target: T2, TGR23-1 expressing CHO cells (Homo sapiens, UniProt Q6W5P4); assay: as above; assay type: cell-based
T2 construct: the clones having the cDNA of TGR23-1, which is contained in pTB2173, were selected; expressed in transfected cells; host or cells: hamster CHO/dhfr- cells, vector pAKKO-111H (pAKKO-TGR23-1), clones No. 49 and No. 52
T2 sequence (Q6W5P4 1-371): T1 sequence (Q6W5P4 1-371 N107I/Q344R) with I107N, R344Q
Description: as §1, §2, §3, §4
as §5, with “determined. […]” for “determined.”

Row | enhancing activity of intracellular cAMP production ([2]; with forskolin) | Sequence | enhancing activity of intracellular cAMP production ([1]; no forskolin) | enhancing activity of intracellular cAMP production ([1]; with forskolin) | enhancing activity of intracellular cAMP production ([2]; no forskolin)
1 |  | SFRNGVGSGVKKTSFRRA [rat TGR23-2 ligand (1-18), Ser-Phe-Arg-Asn-Gly-Val-Gly-Ser-Gly-Val-Lys-Lys-Thr-Ser-Phe-Arg-Arg-Ala] | enhance the intracellular cAMP production | specifically exhibits an enhancing activity for cAMP production | enhance the intracellular cAMP production
2 | clearly enhances cAMP production | SFRNGVGTGMKKTSFQRAKS [human TGR23-2 ligand (1-20)] | enhance the intracellular cAMP production | clearly enhances cAMP production | enhance the intracellular cAMP production
